≈ marks a conversion by molar mass, not a printed value. Like-named read-outs stand apart in the source and are kept apart here.
Experiments:
Assay type in all cases: cell-based
[1] = system: Staphylococcus aureus strain RN4220; test: Minimal Inhibitory Concentration (MIC) determination; settings: read-out: MIC RN4220
Procedure: (§1) MIC is defined as the smallest concentration of a compound that inhibits the growth of bacteria. For that, 6 doses were tested (1, 5, 12.5, 25, 50, 100 μM) for both strains incubated at 37° C., for 20 h.
(§2) Minimum inhibitory concentration (MIC, incubation for 20 h) and maximum bactericide concentration (MBC, incubation for 24 h) for S. aureus strains RN4220 and S25.
(§3) 2 Staphylococcus aureus Strains: • RN4220 (non-pathogenic) • S25 (pathogenic) • MIC: minimal inhibitory concentration • MBC: minimal bactericide concentration

[2] = system: Staphylococcus aureus strain S25; test: as above; settings: Bacteriostatic, 20 h, 37° C., pathogenic strain
Procedure: as §1, §2, §3

[3] = system: Staphylococcus aureus strain RN4220; test: Minimal Bactericide Concentration (MBC) determination; settings: RN4220, 24 h, read-out: MBC RN4220
Procedure: as §1, §2, §3

[4] = system: Staphylococcus aureus strain S25; test: as above; settings: 24 h in fresh media, pathogenic strain
Procedure: as §1, §2, §3

[5] = system: human embryonic kidney 293 cells (HEK293); test: Cytotoxicity by extracellular LDH release (CyQUANT LDH Cytotoxicity Assay Kit); settings: HEK293, 24 h, at their active doses (range of MIC and MBC), N=3
Procedure: • HEK293: 24 h in the presence of the bactericide compounds or DMSO • Method of evaluation: CyQUANT™ LDH Cytotoxicity Assay Kit.
Cytotoxicity through extracellular lactate dehydrogenase (LDH) quantification upon incubation of the compounds with HEK 293T cells at the same range of concentration as MIC and MBC. LDH: positive control, DMEM: negative control. N=3.
Preliminary safety of these compounds towards host cells was evaluated by using a extracellular lactate dehydrogenase (LDH) release model with human embryonic kidney 293 cells (HEK293).

[6] = system: Staphylococcus aureus strain RN4220; test: Bacterial growth inhibition screen at 50 μM; settings: RN4220, 50 μM, 20 h, 37° C.
Procedure: (§4) The inhibition of the growth of two Staphylococcus aureus strains ([…], modified laboratory strain, non-pathogenic; and S25, pathogenic strain obtained from patients) by the presence of our compounds were used to evaluate their efficacy as bacteriostatic and/or bactericide compounds.
(§5) All compounds presented were dissolved in DMSO (10 mM stock solution) and tested initially at 50 μM concentration. The bacterial growth was measured after 5 h and 20 h incubation at 37° C. with the compounds. As positive control, the antibiotics ampicillin and kanamycin were used.

[7] = system: Staphylococcus aureus strain S25; test: Bacterial growth inhibition screen at 50 μM; settings: S25, 50 μM, 20 h, 37° C.
Procedure: as §4, §5

[8] = RN4220, Bacteriostatic, 20 h, 37° C., non-pathogenic strain

Structure (SMILES): O=C(Nc1nc2c(Cl)cc(Cl)cc2s1)C(Cl)(Cl)Cl [MTF640, N-(4,6-dichlorobenzo[d]thiazol-2-yl)trichloroacetamide]
- MIC [1, 8]: 12.5 µM (≈ 4.56 µg/mL)
- MIC [2]: 25 µM (≈ 9.11 µg/mL)
- MBC [3]: 50 µM (≈ 18.2 µg/mL)
- MBC [4]: 50 µM (≈ 18.2 µg/mL)
- cytotoxicity (extracellular LDH level versus DMSO control) [5]: no cytotoxicity activity

Structure (SMILES): N=C(Nc1nc2c(Br)cccc2s1)C(Br)Br [MTF643, 2,2-dibromo-N-(4-bromobenzo[d]thiazol-2-yl)acetimidamide]
- MIC [1, 8]: 25 µM (≈ 10.7 µg/mL)
- MIC [2]: 25 µM (≈ 10.7 µg/mL)
- MBC [3]: 25 µM (≈ 10.7 µg/mL)
- MBC [4]: 50 µM (≈ 21.4 µg/mL)
- cytotoxicity (extracellular LDH level versus DMSO control) [5]: no cytotoxicity activity

Structure (SMILES): N=C(Nc1nc2c(F)cc(F)cc2s1)C(Cl)(Cl)Cl [MTF573, 2,2,2-trichloro-N-(4,6-difluorobenzo[d]thiazol-2-yl)acetimidamide]
- bacterial growth / growth inhibition (in words) [6]: no growth
- bacterial growth / growth inhibition (in words) [7]: no growth
- MIC [1, 8]: 40 µM (≈ 13.2 µg/mL)
- MIC [2]: 50 µM (≈ 16.5 µg/mL)
- MBC [3]: 50 µM (≈ 16.5 µg/mL)
- MBC [4]: 50 µM (≈ 16.5 µg/mL)
- cytotoxicity (extracellular LDH level versus DMSO control) [5]: no cytotoxicity activity

Structure (SMILES): N=C(Nc1nc2c(Cl)cc(Cl)cc2s1)C(Cl)(Cl)Cl [MTF642, 2,2,2-trichloro-N-(4,6-dichlorobenzo[d]thiazol-2-yl)acetimidamide]
- MIC [1, 8]: 12.5 µM (≈ 4.54 µg/mL)
- MIC [2]: 50 µM (≈ 18.2 µg/mL)
- MBC [3]: 12.5 µM (≈ 4.54 µg/mL)
- MBC [4]: 50 µM (≈ 18.2 µg/mL)
- cytotoxicity (extracellular LDH level versus DMSO control) [5]: no cytotoxicity activity

Structure (SMILES): Cc1cccc2sc(NC(=N)C(Cl)(Cl)Cl)nc12 [MTF572, 2,2,2-trichloro-N-(4-methylbenzo[d]thiazol-2-yl)acetimidamide]
- bacterial growth / growth inhibition (in words) [6]: no growth
- bacterial growth / growth inhibition (in words) [7]: no growth
- MIC ([1]; RN4220, 20 h): 40 µM (≈ 12.3 µg/mL)
- MIC [2]: 40 µM (≈ 12.3 µg/mL)
- MBC [3]: 100 µM (≈ 30.9 µg/mL)

Structure (SMILES): N=C(Nc1nc2c(Cl)cccc2s1)C(Cl)(Cl)Cl [MTF235, 2,2,2-trichloro-N-(4-chlorobenzo[d]thiazol-2-yl)acetimidamide]
- bacterial growth / growth inhibition (in words) [6]: no growth
- bacterial growth / growth inhibition (in words) [7]: no growth
- MIC [1, 8]: 25 µM (≈ 8.23 µg/mL)
- MIC [2]: 25 µM (≈ 8.23 µg/mL)
- MBC [3]: 50 µM (≈ 16.5 µg/mL)
- MBC [4]: 50 µM (≈ 16.5 µg/mL)
- cytotoxicity (extracellular LDH level versus DMSO control) [5]: no cytotoxicity activity

From patent US20260258006A1, “NEW ANTIBIOTIC COMPOUNDS” (UNIVERSITÉ CÔTE D'AZUR, priority 2022, published 2026)
